In one assay the target is T1, Wee1 kinase domain (Homo sapiens, UniProt P30291).
T1 construct: Wee1 kinase domain was purchased from Carna (catalog #05-177); purchased Carna 05-177
The assay is described as follows: Wee1 Kinase Biochemical Assay (ADP-Glo). To be noted: 15 uM ATP. In short, it runs like this:
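ADP-Glo luminescence readout of ADP produced by 1 nM kinase domain phosphorylating Poly(Lys,Tyr 4:1) (2 ng/mL) at 15 uM ATP. Reaction ran 4 h, 25 °C, in Tris/MgCl2 buffer with BSA and DTT. Inhibition scaled between DMSO (high) and saturating control inhibitor (low).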
In general terms: ADP-Glo turns the ADP formed in a reaction into a luminescent signal.

In assay [1] the test system is phosphorylation of Cdc2 Y15 (Wee1 substrate) in A427 cells. The assay is described as follows: Phosphorylated Cdc2 MSD Electrochemiluminescence Assay. To be noted: Homo sapiens. The class given is cell-based. In outline: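 Read-out: percent residual phospho-Cdc2 Y15 relative to DMSO and positive-control Wee1 inhibitor, measured by MSD electrochemiluminescence capture/detection antibody assay in cell lysates. A427 cells received duplicate 3-fold compound dilution series 20 h post-seeding, with 6 h total incubation at 37 °C.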

Setting [2] is: class symbols, 1 nM Wee1 enzyme, 4 hours at 25° C.
Where [3] appears, read: A-427, class symbols, read-out: A427 pCDC2 MSD IC50.

Molecules are shown by their SMILES. Like-named read-outs stand apart in the source and are kept apart here.

T1 sequence (P30291 299-569 limits assumed): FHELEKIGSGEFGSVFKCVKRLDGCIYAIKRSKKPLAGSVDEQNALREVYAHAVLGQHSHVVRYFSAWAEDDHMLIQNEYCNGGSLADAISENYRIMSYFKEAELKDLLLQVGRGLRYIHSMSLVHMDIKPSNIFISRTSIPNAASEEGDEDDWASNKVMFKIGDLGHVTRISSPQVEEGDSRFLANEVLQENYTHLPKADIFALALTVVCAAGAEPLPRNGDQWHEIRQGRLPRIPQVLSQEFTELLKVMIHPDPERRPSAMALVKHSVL

In general, IC50 refers to the midpoint of a concentration-inhibition curve. For `CC1(C)C[C@H]2N(c3cccc(N4CCCC4=O)n3)c3nc(Nc4ccc(C5CNC5)cc4)ncc3[C@@]2(C)CO1` [Example 662, 1-(6-((4bR,8aR)-2-((4-(azetidin-3-yl)phenyl)amino)-4b,7,7-trimethyl-4b,7,8,8a-tetrahydropyrano[3′,4′:4,5]pyrrolo[2,3-d]pyrimidin-9(5H)-yl)pyridin-2-yl)pyrrolidin-2-one], the half-inhibitory concentration (IC50) against Wee1 kinase domain (setting [2]) is < 10 nM; in assay [1] (setting [3]) it was 100 to 1000 nM.

On to `CN1CC2(C1)CN(c1ccc(Nc3ncc4c(n3)N(c3cccc(N5CCCC5=O)n3)[C@@H]3CC(C)(C)OC[C@]43C)cc1)C2` [Example 690, 1-(6-((4bR,8aR)-4b,7,7-trimethyl-2-((4-(6-methyl-2,6-diazaspiro[3.3]heptan-2-yl)phenyl)amino)-4b,7,8,8a-tetrahydropyrano[3′,4′:4,5]pyrrolo[2,3-d]pyrimidin-9(5H)-yl)pyridin-2-yl)pyrrolidin-2-one], for which the 50% inhibitory concentration (IC50) was < 10 nM at Wee1 kinase domain (setting [2]) and 100 to 1000 nM in assay [1] (setting [3]).

In the case of `CN1CC[C@H]2CN(c3ccc(Nc4ncc5c(n4)N(c4cccc(N6CCCC6=O)n4)[C@@H]4CC(C)(C)OC[C@]54C)cc3)C[C@H]21` [Example 688, 1-(6-((4bR,8aR)-4b,7,7-trimethyl-2-((4-((3aS,6aS)-1-methylhexahydropyrrolo[3,4-b]pyrrol-5(1H)-yl)phenyl)amino)-4b,7,8,8a-tetrahydropyrano[3′,4′:4,5]pyrrolo[2,3-d]pyrimidin-9(5H)-yl)pyridin-2-yl)pyrrolidin-2-one], the IC50 at Wee1 kinase domain (setting [2]) is < 10 nM; in assay [1] (setting [3]), < 100 nM.

In the case of `CN1CC(c2ccc(Nc3ncc4c(n3)N(c3cccc(N=S5(=O)CCCC5)n3)[C@@H]3CC(C)(C)OC[C@]43C)cc2)C1` (single isomer, unassigned) [Example 754], the results for the 50% inhibitory concentration (IC50) (on Wee1 kinase domain (setting [2]); in assay [1] (setting [3])) were < 10 nM and < 100 nM, respectively.

Consider `C[C@H]1COC(=O)N1c1cccc(N2c3nc(Nc4ccc(N5C[C@H]6C[C@@H]5CN6C)cc4)ncc3[C@@]3(C)COC(C)(C)C[C@@H]23)n1` (single isomer, unassigned) [Example 247], for which the half-inhibitory concentration (IC50) is < 10 nM at Wee1 kinase domain (Wee1 kinase domain, ADP-Glo) and 100 to 1000 nM in assay [1] (A-427, pCDC2 MSD).

Consider `CC1(C)C[C@H]2N(c3cccc([C@H]4CCNC4)n3)c3nc(Nc4ccc(N5CCOCC5)cc4)ncc3[C@@]2(C)CO1` (single isomer, unassigned) [Example 542], for which the IC50 was < 10 nM against Wee1 kinase domain (setting [2]) and 100 to 1000 nM in assay [1] (setting [3]).

As to `CN1CCN(c2ccc(Nc3ncc4c(n3)N(c3cccc(N5C(=O)CCC5(C)C)n3)[C@@H]3CC(C)(C)OC[C@]43C)cc2)CC1` (single isomer, unassigned) [Example 729], the IC50 is < 10 nM on Wee1 kinase domain (setting [2]) and 100 to 1000 nM in assay [1] (setting [3]).

Take `COc1ccc(Nc2ncc3c(n2)N(c2cccc(N=S(C)(C)=O)n2)[C@@H]2CC(C)(C)OC[C@]32C)nn1` (single isomer, unassigned) [Example 372]: the IC50 on Wee1 kinase domain (Wee1 kinase domain, ADP-Glo) is < 10 nM; in assay [1] (A-427, pCDC2 MSD) it was 100 to 1000 nM.

With `CN1C[C@@H]2C[C@H]1CN2c1ccc(Nc2ncc3c(n2)N(c2cccc(N=S(C)(C)=O)n2)[C@@H]2CC(C)(C)OC[C@]32C)cc1` (single isomer, unassigned) [Example 124], the half-inhibitory concentration (IC50) is < 10 nM against Wee1 kinase domain (Wee1 kinase domain, ADP-Glo) and < 100 nM in assay [1] (A-427, pCDC2 MSD).

For the molecule `CN1C[C@H]2C[C@@H]1CN2c1ccc(Nc2ncc3c(n2)N(c2cccc(C4(O)COC4)n2)[C@@H]2CC(C)(C)OC[C@]32C)cc1` (single isomer, unassigned) [Example 517], the results for the IC50 (against Wee1 kinase domain (setting [2]); in assay [1] (setting [3])) were < 10 nM and 100 to 1000 nM, respectively.

Regarding `CN[C@]1(C)CCc2ccc(N3c4nc(Nc5ccc(N6CCOCC6)cc5)ncc4[C@@]4(C)COC(C)(C)C[C@@H]34)nc21` (single isomer, unassigned) [Example 569], the IC50 at Wee1 kinase domain (setting [2]) is < 10 nM; in assay [1] (setting [3]), < 100 nM.

As to `Cc1ccc(Nc2ncc3c(n2)N(c2cccc(N=S(C)(C)=O)n2)[C@@H]2CC(C)(C)OC[C@]32C)nn1` (single isomer, unassigned) [Example 364], the 50% inhibitory concentration (IC50) against Wee1 kinase domain (Wee1 kinase domain, ADP-Glo) is < 10 nM; in assay [1] (A-427, pCDC2 MSD), 100 to 1000 nM.

With `Cc1cc(Nc2ncc3c(n2)N(c2cccc(N=S(C)(C)=O)n2)[C@@H]2CC(C)(C)OC[C@]32C)ccc1C1CCN(C)CC1` (single isomer, unassigned) [Example 104], the half-maximal inhibitory concentration (IC50) against Wee1 kinase domain (Wee1 kinase domain, ADP-Glo) was < 10 nM; in assay [1] (A-427, pCDC2 MSD), < 100 nM.

`CN(C)C(=O)c1ccc(Nc2ncc3c(n2)N(c2cccc(N=S(C)(C)=O)n2)[C@@H]2CC(C)(C)OC[C@]32C)cc1` (single isomer, unassigned) [Example 141]: the IC50 is < 10 nM against Wee1 kinase domain (Wee1 kinase domain, ADP-Glo) and < 100 nM in assay [1] (A-427, pCDC2 MSD).

In the case of `CN[C@@H]1CCc2ccc(N3c4nc(Nc5ccc(N6CCOCC6)cc5)ncc4[C@@]4(C)COC(C)(C)C[C@@H]34)nc21` (single isomer, unassigned) [Example 553], the IC50 at Wee1 kinase domain (setting [2]) was < 10 nM; in assay [1] (setting [3]) it was 100 to 1000 nM.

`CN1C[C@@H]2C[C@H]1CN2c1ccc(Nc2ncc3c(n2)N(c2cccc(C(C)(C)O)n2)[C@@H]2CC(C)(C)OC[C@]32C)cc1` (single isomer, unassigned) [Example 416]: the IC50 was < 10 nM against Wee1 kinase domain (setting [2]) and 100 to 1000 nM in assay [1] (setting [3]).

For the molecule `C[C@H]1COC(=O)N1c1cccc(N2c3nc(Nc4ccc(OC5CCNCC5)nc4)ncc3[C@@]3(C)COC(C)(C)C[C@@H]23)n1` (single isomer, unassigned) [Example 325], the IC50 on Wee1 kinase domain (Wee1 kinase domain, ADP-Glo) was < 10 nM; in assay [1] (A-427, pCDC2 MSD) it was 100 to 1000 nM.

As for `CN[C@@H]1CCN(c2ccc(Nc3ncc4c(n3)N(c3cccc(N5C(=O)OC[C@@H]5C)n3)[C@@H]3CC(C)(C)OC[C@]43C)cc2)C1` (single isomer, unassigned) [Example 319], the IC50 against Wee1 kinase domain (Wee1 kinase domain, ADP-Glo) was < 10 nM; in assay [1] (A-427, pCDC2 MSD) it was 100 to 1000 nM.

For the molecule `CNCc1cccc(N2c3nc(Nc4ccc(N5C[C@@H]6C[C@H]5CO6)cc4)ncc3[C@@]3(C)COC(C)(C)C[C@@H]23)n1` (single isomer, unassigned) [Example 41], the IC50 is < 10 nM on Wee1 kinase domain (Wee1 kinase domain, ADP-Glo) and < 100 nM in assay [1] (A-427, pCDC2 MSD).

In the case of `CN[C@H]1CCN(c2ccc(Nc3ncc4c(n3)N(c3cccc(N5C(=O)OC[C@@H]5C)n3)[C@@H]3CC(C)(C)OC[C@]43C)cc2)C1` (single isomer, unassigned) [Example 317], the 50% inhibitory concentration (IC50) was < 10 nM against Wee1 kinase domain (Wee1 kinase domain, ADP-Glo) and 100 to 1000 nM in assay [1] (A-427, pCDC2 MSD).

In the case of `CN1CCN(c2ccc(Nc3ncc4c(n3)N(c3cccc(C5CC5)n3)[C@@H]3CC(C)(C)OC[C@]43C)cc2)CC1` (single isomer, unassigned) [Example 774], the figures for the concentration for half-maximal inhibition (IC50) (on Wee1 kinase domain (setting [2]); in assay [1] (setting [3])) were < 10 nM and 100 to 1000 nM, respectively.

On to `CN1C[C@H]2C[C@@H]1CN2c1ccc(Nc2ncc3c(n2)N(c2cccc(N=S(C)(C)=O)n2)[C@@H]2CC(C)(C)OC[C@]32C)cc1F` (single isomer, unassigned) [Example 176], for which the IC50 against Wee1 kinase domain (Wee1 kinase domain, ADP-Glo) is < 10 nM; in assay [1] (A-427, pCDC2 MSD), 100 to 1000 nM.

As for `CN1CCC(n2cc(Nc3ncc4c(n3)N(c3cccc(N=S(C)(C)=O)n3)[C@H]3CC(C)(C)OC[C@@]43C)cn2)CC1` (single isomer, unassigned) [Example 101], the IC50 was 100 to 1000 nM against Wee1 kinase domain (Wee1 kinase domain, ADP-Glo) and 1000 to 10000 nM in assay [1] (A-427, pCDC2 MSD).

In the case of `CN1C[C@@H]2C[C@H]1CN2c1ccc(Nc2ncc3c(n2)N(c2cccc(C(C)(C)O)n2)[C@@H]2CC(C)(C)OC[C@]32C)cc1Cl` (single isomer, unassigned) [Example 435], the IC50 at Wee1 kinase domain (setting [2]) was < 10 nM; in assay [1] (setting [3]), 100 to 1000 nM.

For the molecule `CN=[S@](C)(=O)c1cccc(N2c3nc(Nc4ccc(N5CC6(CN(C)C6)C5)cc4)ncc3[C@@]3(C)COC(C)(C)C[C@@H]23)n1` [Example 770, (R)-methyl(methylimino)(6-((4bR,8aR)-4b,7,7-trimethyl-2-((4-(6-methyl-2,6-diazaspiro[3.3]heptan-2-yl)phenyl)amino)-4b,7,8,8a-tetrahydropyrano[3′,4′:4,5]pyrrolo[2,3-d]pyrimidin-9(5H)-yl)pyridin-2-yl)-16-sulfanone], the IC50 at Wee1 kinase domain (setting [2]) was < 10 nM; in assay [1] (setting [3]), 100 to 1000 nM.

In the case of `C[C@H]1COC(=O)N1c1cccc(N2c3nc(Nc4ccc(N5CCN(C)CC5)nn4)ncc3[C@@]3(C)COC(C)(C)C[C@@H]23)n1` [Example 249], the concentration for half-maximal inhibition (IC50) is < 10 nM against Wee1 kinase domain (Wee1 kinase domain, ADP-Glo) and 100 to 1000 nM in assay [1] (A-427, pCDC2 MSD).

In the case of `[2H]C([2H])([2H])n1ccc(Nc2ncc3c(n2)N(c2cccc(N=S(C)(C)=O)n2)[C@@H]2CC(C)(C)OC[C@]32C)cc1=O` (single isomer, unassigned) [Example 378], the IC50 is < 10 nM against Wee1 kinase domain (Wee1 kinase domain, ADP-Glo) and 100 to 1000 nM in assay [1] (A-427, pCDC2 MSD).

For the molecule `CC1(C)C[C@H]2N(c3cccc(P(C)(C)=O)n3)c3nc(Nc4ccn([C@H]5CCOC5)c(=O)c4)ncc3[C@@]2(C)CO1` [Example 782, 4-(((4bR,8aR)-9-(6-(dimethylphosphoryl)pyridin-2-yl)-4b,7,7-trimethyl-4b,5,7,8,8a,9-hexahydropyrano[3′,4′:4,5]pyrrolo[2,3-d]pyrimidin-2-yl)amino)-1-((S)-tetrahydrofuran-3-yl)pyridin-2(1H)-one], the IC50 at Wee1 kinase domain (setting [2]) is < 10 nM; in assay [1] (setting [3]), < 100 nM.

Take `CNCc1cccc(N2c3nc(Nc4ccn([C@H]5CCOC5)c(=O)c4)ncc3[C@@]3(C)COC(C)(C)C[C@@H]23)n1` (single isomer, unassigned) [Example 389]: the IC50 was < 10 nM against Wee1 kinase domain (Wee1 kinase domain, ADP-Glo) and 1000 to 10000 nM in assay [1] (A-427, pCDC2 MSD).

As for `CN1CC(c2ccc(Nc3ncc4c(n3)N(c3cccc(N=S(C)(C)=O)n3)[C@@H]3CC(C)(C)OC[C@]43C)cc2F)C1` (single isomer, unassigned) [Example 184], the IC50 on Wee1 kinase domain (Wee1 kinase domain, ADP-Glo) is < 10 nM; in assay [1] (A-427, pCDC2 MSD) it was < 100 nM.

As for `C[C@H]1COC(=O)N1c1cccc(N2c3nc(Nc4cn(C5CCN(C)CC5)nn4)ncc3[C@@]3(C)COC(C)(C)C[C@@H]23)n1` (single isomer, unassigned) [Example 253], the IC50 was < 10 nM on Wee1 kinase domain (Wee1 kinase domain, ADP-Glo) and 100 to 1000 nM in assay [1] (A-427, pCDC2 MSD).
